Results from patent US4407798A, “Cephem compounds” (Fujisawa Pharmaceutical Co., Ltd., priority 1980, dated 1983).

These molecules were tested on Escherichia coli 31 (assay: In vitro antimicrobial activity, two-fold agar-plate dilution method (MIC)). Settings: HI-agar, 37° C., 20 hours.
Assay type: cell-based
Procedure: Now in order to show the utility of the object compounds (I), the test data on the in vitro antimicrobial activity of some representative compounds (I) of this invention are shown in the following. Test: In vitro Antimicrobial Activity.
In vitro Antimicrobial activity was determined by the two-fold agar-plate dilution method as described below.
One loopful of an overnight culture of each test strain in Tripticase-soy broth (approximately 10^8 viable cells per ml) was streaked on heart infusion agar (HI-agar) containing graded concentrations of antimicrobial agents, and the minimal inhibitory concentration (MIC) was expressed in term of μg/ml after incubation at 37° C. for 20 hours.

MIC, 0.05 µg/mL:
Nc1ccnc(/C(=N/OC2CCCC2)C(=O)NC2C(=O)N3C(C(=O)[O-])=C(C[n+]4ccccc4)CSC23)n1 (stereo not drawn) [Compound A, 7-[2-Cyclopentyloxyimino-2-(4-aminopyrimidin-2-yl)acetamido]-3-(1-pyridiniomethyl)-3-cephem-4-carboxylate (syn isomer)]
CSCO/N=C(\C(=O)NC1C(=O)N2C(C(=O)[O-])=C(C[n+]3ccccc3)CSC12)c1nccc(N)n1 (stereo not drawn) [Compound B, 7-[2-Methylthiomethoxyimino-2-(4-aminopyrimidin-2-yl)acetamido]-3-(1-pyridiniomethyl)-3-cephem-4-carboxylate (syn isomer)]
CCO/N=C(\C(=O)NC1C(=O)N2C(C(=O)[O-])=C(C[n+]3ccccc3)CSC12)c1nccc(N)n1 (stereo not drawn) [Compound C, 7-[2-Ethoxyimino-2-(4-aminopyrimidin-2-yl)acetamido]-3-(1-pyridiniomethyl)-3-cephem-4-carboxylate (syn isomer)]
C#CCO/N=C(\C(=O)NC1C(=O)N2C(C(=O)[O-])=C(C[n+]3ccccc3)CSC12)c1nccc(N)n1 (stereo not drawn) [Compound D, 7-[2-Propargyloxyimino-2-(4-aminopyrimidin-2-yl)acetamido]-3-(1-pyridiniomethyl)-3-cephem-4-carboxylate (syn isomer)]
